Assay [1] has as its target VEGFR2 (KDR) (Homo sapiens (Human), UniProt P35968). Briefly: VEGFR2 (KDR) enzyme assay, fluorescence polarization. It counts as biochemical. The conditions noted are these: 5 μM ATP, poly(Glu, Tyr) substrate. Summed up: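 Autophosphorylation read by fluorescence polarization: VEGFR2 (Proquinase) at 200 ng/10 μl with 5 μM ATP and 10 ng/ml poly(Glu,Tyr) 4:1, in 20 mM HEPES pH 7.4, 5 mM MgCl2, 2 mM MnCl2, 50 μM Na3VO4. Reaction 1 h at room temperature, EDTA stop, then anti-phosphotyrosine antibody/tracer for 30 min in the dark.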

The target of assay [2] is EGFR1 (HER-1) (Homo sapiens (Human), UniProt P00533). The assay is described as follows: EGFR1 (HER-1) enzyme assay, fluorescence polarization. It counts as biochemical. To be noted: 100 μM ATP, poly(Glu, Tyr) substrate.
Assay [3] deals with colon and rectal cancer cell line, SW-620. The assay is described as follows: Inhibitory effect on growth of cancer cell line SW-620, SRB. To be noted: not having overexpressed EGFR and EGFR2. It counts as cell-based. A digest of the protocol: (§1)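 Cells were cultured in DMEM with 10% FBS. Compounds were applied at 10 μM with 10-fold serial dilution to 10^−4, DMSO <1%, for 72 h at 37 °C. Cells were then TCA-fixed and stained with 0.4% SRB, and absorbance was read at 570 nm after solubilisation in 10 mM Tris base.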

In assay [4] the test system is skin cancer cell line, A431. The assay is described as follows: Inhibitory effect on growth of cancer cell line A431, SRB. It counts as cell-based. The conditions noted are these: overexpressed EGFR1 (HER-1). Summed up:
as §1

In assay [5] the test system is breast cancer cell line, SK-Br3. The assay is described as follows: Inhibitory effect on growth of cancer cell line SK-Br3, SRB. It counts as cell-based. The conditions noted are these: overexpressed EGFR2 (HER-2). Summed up: as §1
For assay [6], the system named is Human Umbilical Vein Endothelial Cell (HUVEC). Briefly: Inhibitory effect on growth of human umbilical vein endothelial cell (HUVEC), MTS. It counts as cell-based. The conditions noted are these: 10 ng/ml VEGF, absorbance 490 nm.

Here are results for 15 compounds from patent publication US8846699B2, “Quinazoline derivatives as a multiplex inhibitor and method for the preparation thereof” (Hanmi Pharm. Co., Ltd., priority 2005, dated 2014).

Chain of VEGFR2 (KDR) (P35968 20-1356): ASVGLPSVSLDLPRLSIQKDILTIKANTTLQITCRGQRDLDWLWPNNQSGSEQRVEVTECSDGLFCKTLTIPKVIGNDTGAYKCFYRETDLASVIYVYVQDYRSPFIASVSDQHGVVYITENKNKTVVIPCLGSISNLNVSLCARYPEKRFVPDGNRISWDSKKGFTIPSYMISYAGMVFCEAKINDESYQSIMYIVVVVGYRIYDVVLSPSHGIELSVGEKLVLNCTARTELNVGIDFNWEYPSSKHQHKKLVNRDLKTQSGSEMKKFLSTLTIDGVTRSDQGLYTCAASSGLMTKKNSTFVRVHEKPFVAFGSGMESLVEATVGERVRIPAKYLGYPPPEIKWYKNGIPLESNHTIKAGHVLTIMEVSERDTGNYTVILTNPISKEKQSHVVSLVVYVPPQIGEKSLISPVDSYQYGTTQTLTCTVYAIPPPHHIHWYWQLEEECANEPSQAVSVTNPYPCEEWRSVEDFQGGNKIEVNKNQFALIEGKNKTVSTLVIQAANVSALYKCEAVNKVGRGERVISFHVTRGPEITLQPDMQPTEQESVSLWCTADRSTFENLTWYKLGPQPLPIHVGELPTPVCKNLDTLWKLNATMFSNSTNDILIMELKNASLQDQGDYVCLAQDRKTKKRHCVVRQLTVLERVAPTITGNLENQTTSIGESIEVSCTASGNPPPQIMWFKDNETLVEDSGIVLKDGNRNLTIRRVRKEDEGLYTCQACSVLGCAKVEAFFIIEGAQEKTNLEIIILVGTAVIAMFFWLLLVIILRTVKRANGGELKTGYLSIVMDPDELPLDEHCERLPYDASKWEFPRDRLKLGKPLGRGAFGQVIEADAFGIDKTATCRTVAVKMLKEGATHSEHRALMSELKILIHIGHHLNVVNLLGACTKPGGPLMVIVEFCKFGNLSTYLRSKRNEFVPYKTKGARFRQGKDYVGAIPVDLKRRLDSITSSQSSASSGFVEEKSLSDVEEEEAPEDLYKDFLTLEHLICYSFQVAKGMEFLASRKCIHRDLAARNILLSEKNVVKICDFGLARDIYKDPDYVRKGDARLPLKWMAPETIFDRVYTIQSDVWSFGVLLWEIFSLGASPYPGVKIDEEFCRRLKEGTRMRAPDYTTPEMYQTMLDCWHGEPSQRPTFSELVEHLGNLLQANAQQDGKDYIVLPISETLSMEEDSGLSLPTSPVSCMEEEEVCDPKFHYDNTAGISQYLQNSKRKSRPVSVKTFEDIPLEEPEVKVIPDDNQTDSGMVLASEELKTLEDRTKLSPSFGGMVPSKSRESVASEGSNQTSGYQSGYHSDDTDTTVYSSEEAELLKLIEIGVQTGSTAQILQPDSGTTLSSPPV

As for `C=CCCOc1cc2ncnc(Nc3ccc(Br)cc3F)c2cc1NC(=O)C=C` [Example 31, N-[4-(4-bromo-2-fluoro-phenylamino)-7-but-3-enyloxy-quinazolin-6-yl]-acrylamide], the IC50 in assay [1] stood at 0.523 µM; in assay [2], 0.09 µM; in assay [3] (Homo sapiens, 72 h) it was 2.53 µM; in assay [4] (Homo sapiens, A-431, 72 h), 0.093 µM; in assay [5] (Homo sapiens, SK-BR-3, 72 h), 0.055 µM; in assay [6] (Homo sapiens, 96 h) it was 0.686 µM.
Take `C=CC(=O)Nc1cc2c(Nc3ccc(Br)cc3F)ncnc2cc1OCC1CCN(C(=O)CN(C)C)CC1` [Example 10, N-{4-(4-bromo-2-fluoro-phenylamino)-7-[1-(2-dimethylamino-acetyl)-piperidin-4-ylmethoxy]-quinazolin-6-yl}-acrylamide]: the IC50 in assay [1] is 0.055 µM; in assay [2] it was 0.006 µM; in assay [3] (Homo sapiens, 72 h), 2.75 µM; in assay [4] (Homo sapiens, A-431, 72 h) it was 0.008 µM; in assay [5] (Homo sapiens, SK-BR-3, 72 h) it was 0.33 µM; in assay [6] (Homo sapiens, 96 h), 0.049 µM.
As to `C=CC(=O)Nc1cc2c(Nc3cc(Cl)c(Cl)cc3F)ncnc2cc1OCCNC(=O)CN(C)C` [Example 140, N-{4-(4,5-dichloro-2-fluoro-phenylamino)-7-[2-(2-dimethylamino-acetylamino)-ethoxy]-quinazolin-6-yl}-acrylamide], the IC50 in assay [1] is 0.751 µM; in assay [2], 0.009 µM; in assay [3] (Homo sapiens, 72 h), 9.54 µM; in assay [4] (Homo sapiens, A-431, 72 h), 0.008 µM; in assay [5] (Homo sapiens, SK-BR-3, 72 h), 0.057 µM; in assay [6] (Homo sapiens, 96 h) it was 0.756 µM.
On to `C=CC(=O)Nc1cc2c(Nc3ccc(Br)cc3F)ncnc2cc1OCCOC` [Example 32, N-[4-(4-bromo-2-fluoro-phenylamino)-7-(2-methoxy-ethoxy)-quinazolin-6-yl]-acrylamide], for which the IC50 in assay [1] turned out to be 0.259 µM; in assay [2], 0.025 µM; in assay [3] (Homo sapiens, 72 h) it was 4.55 µM; in assay [4] (Homo sapiens, A-431, 72 h), 0.031 µM; in assay [5] (Homo sapiens, SK-BR-3, 72 h) it was 0.198 µM; in assay [6] (Homo sapiens, 96 h) it was 0.35 µM.
With `C=CC(=O)Nc1cc2c(Nc3ccc(Br)cc3F)ncnc2cc1OCCNC(=O)CNC` [Example 60, N-{4-(4-bromo-2-fluoro-phenylamino)-7-[2-(2-methylamino-acetylamino)-ethoxy]-quinazolin-6-yl}-acrylamide], the IC50 in assay [1] is 0.685 µM; in assay [2] it was 0.136 µM; in assay [3] (Homo sapiens, 72 h) it was 9.57 µM; in assay [4] (Homo sapiens, A-431, 72 h) it was 0.125 µM; in assay [5] (Homo sapiens, SK-BR-3, 72 h), 0.939 µM; in assay [6] (Homo sapiens, 96 h), 0.689 µM.
For the compound `C=CC(=O)Nc1cc2c(Nc3ccc(Br)cc3F)ncnc2cc1OCC(C)NC(C)=O` (stereo not drawn) [Example 81, N-[7-(2-acetylamino-propoxy)-4-(4-bromo-2-fluoro-phenylamino)-quinazolin-6-yl]-acrylamide], the IC50 amounted to 0.041 µM in assay [1]; 0.154 µM in assay [2]; 2.5 µM in assay [3] (Homo sapiens, 72 h); 0.365 µM in assay [4] (Homo sapiens, A-431, 72 h); 0.896 µM in assay [5] (Homo sapiens, SK-BR-3, 72 h); 0.205 µM in assay [6] (Homo sapiens, 96 h).
With `C=CC(=O)Nc1cc2c(Nc3ccc(Br)cc3F)ncnc2cc1OCCNC(=O)NCC` [Example 23, N-{4-(4-bromo-2-fluoro-phenylamino)-7-[2-(3-ethyl-ureido)-ethoxy]-quinazolin-6-yl}-acrylamide], the IC50 in assay [1] worked out at 0.25 µM; in assay [2], 0.002 µM; in assay [3] (Homo sapiens, 72 h) it was 8.1 µM; in assay [4] (Homo sapiens, A-431, 72 h), 0.015 µM; in assay [5] (Homo sapiens, SK-BR-3, 72 h), 0.038 µM; in assay [6] (Homo sapiens, 96 h) it was 0.099 µM.
As for `C=CC(=O)Nc1cc2c(Nc3cc(Cl)c(Br)cc3F)ncnc2cc1OCCNC(=O)CN(C)C` [Example 135, N-{4-(4-bromo-5-chloro-2-fluoro-phenylamino)-7-[2-(2-dimethylamino-acetylamino)-ethoxy]-quinazolin-6-yl}-acrylamide], the IC50 is 0.784 µM in assay [1]; 0.009 µM in assay [2]; 2.43 µM in assay [3] (Homo sapiens, 72 h); 0.011 µM in assay [4] (Homo sapiens, A-431, 72 h); 0.042 µM in assay [5] (Homo sapiens, SK-BR-3, 72 h); 1.31 µM in assay [6] (Homo sapiens, 96 h).
Regarding `C=CC(=O)Nc1cc2c(Nc3ccc(Br)cc3F)ncnc2cc1OCCNC(=O)N1CCN(C)CC1` [Example 96, 4-methyl-piperazine-1-carboxylic acid {2-[6-acryloylamino-4-(4-bromo-2-fluoro-phenylamino)-quinazolin-7-yloxy]-ethyl}-amide], the IC50 in assay [1] was determined as 0.358 µM; in assay [2] it was 0.013 µM; in assay [3] (Homo sapiens, 72 h) it was 10 µM; in assay [4] (Homo sapiens, A-431, 72 h), 0.021 µM; in assay [5] (Homo sapiens, SK-BR-3, 72 h), 0.239 µM; in assay [6] (Homo sapiens, 96 h), 0.352 µM.
Turning to `C=CC(=O)Nc1cc2c(Nc3ccc(Br)cc3F)ncnc2cc1OCCNC(=O)CCO` [Example 67, N-{4-(4-bromo-2-fluoro-phenylamino)-7-[2-(3-hydroxy-propionylamino)-ethoxy]-quinazolin-6-yl}-acrylamide], the IC50 in assay [1] came to 0.215 µM; in assay [2], 0.089 µM; in assay [3] (Homo sapiens, 72 h), 2.21 µM; in assay [4] (Homo sapiens, A-431, 72 h), 0.073 µM; in assay [5] (Homo sapiens, SK-BR-3, 72 h), 0.983 µM; in assay [6] (Homo sapiens, 96 h), 0.351 µM.
With `C=CC(=O)NCCOc1cc2ncnc(Nc3ccc(Br)cc3F)c2cc1NC(=O)C=C` [Example 26, N-{2-[6-acryloylamino-4-(4-bromo-2-fluoro-phenylamino)-quinazolin-7-yloxy]-ethyl}-acrylamide], the IC50 in assay [1] was 0.25 µM; in assay [2], 0.005 µM; in assay [3] (Homo sapiens, 72 h) it was 10 µM; in assay [4] (Homo sapiens, A-431, 72 h), 0.049 µM; in assay [5] (Homo sapiens, SK-BR-3, 72 h) it was 0.08 µM; in assay [6] (Homo sapiens, 96 h), 0.087 µM.
As for `C=CC(=O)Nc1cc2c(Nc3ccc(Br)cc3F)ncnc2cc1OCCNC(=O)C=CCC` [Example 52, pent-2-enoic acid {2-[6-acryloylamino-4-(4-bromo-2-fluoro-phenylamino)-quinazolin-7-yloxy]-ethyl}-amide], the IC50 in assay [1] came to 0.354 µM; in assay [2], 0.036 µM; in assay [3] (Homo sapiens, 72 h), 10 µM; in assay [4] (Homo sapiens, A-431, 72 h), 0.037 µM; in assay [5] (Homo sapiens, SK-BR-3, 72 h), 0.084 µM; in assay [6] (Homo sapiens, 96 h), 0.35 µM.
As for “N-{2-[6-acryloylamino-4-(4-bromo-2-fluoro-phenylamino)-quinazolin-7-yloxy]-ethyl}-4-dimethylamino-butylamide [Example 66]”, the IC50 was determined as 0.125 µM in assay [1]; 0.021 µM in assay [2]; 10 µM in assay [3] (72 hours); 0.011 µM in assay [4] (72 hours); 0.103 µM in assay [5] (72 hours); 0.238 µM in assay [6] (96 hours).
Take `C=CC(=O)Nc1cc2c(Nc3ccc(Br)cc3F)ncnc2cc1OCCNC(=O)CN1CC=CC1` [Example 108, N-{4-(4-bromo-2-fluoro-phenylamino)-7-[2-(2-2,5-dihydro-pyrrol-1-yl-acetylamino)-ethoxy]-quinazolin-6-yl}-acrylamide]: the IC50 in assay [1] came to 0.486 µM; in assay [2] it was 0.032 µM; in assay [3] (Homo sapiens, 72 h), 2.95 µM; in assay [4] (Homo sapiens, A-431, 72 h), 0.041 µM; in assay [5] (Homo sapiens, SK-BR-3, 72 h), 0.103 µM; in assay [6] (Homo sapiens, 96 h) it was 0.497 µM.
With “N-{2-[6-acryloylamino-4-(4-bromo-2-fluoro-phenylamino)-quinazolin-7-yloxy]-ethyl}-malonic acid [Example 70]”, the IC50 in assay [1] worked out at 0.279 µM; in assay [2], 0.956 µM; in assay [3] (72 hours) it was 9.57 µM; in assay [4] (72 hours) it was 0.973 µM; in assay [5] (72 hours) it was 10 µM; in assay [6] (96 hours), 0.365 µM.
